US10093630B2, “Pyrazole compounds and methods of making and using same” (ABIDE THERAPEUTICS, INC., priority 2014, dated 2018)

Key:
Assay in all cases: In vitro competitive activity-based protein profiling (gel-based, FP-Rh or HT-01 probe)
Format in all cases: biochemical
ABHD6 = molecular target: T1, ABHD6 (Mus musculus, UniProt Q8R2Y0); conditions: for inhibition at 1 µM: 1 μM inhibitor, read-out: % Inhibition at 1 μM, C = ABHD6; for inhibition at 10 µM: 10 μM inhibitor, read-out: % Inhibition at 10 μM, C = ABHD6; for IC50: mouse brain membrane fraction or cell lysates, 30 min preincubation at 37° C., read-out: Mouse (IC50 value, nM) ABHD6
T1 construct: Proteomes (mouse brain membrane fraction or cell lysates); from tissue; host or cells: mouse brain membrane fraction (or cell lysates, not specified)
T1 sequence (Q8R2Y0 1-336): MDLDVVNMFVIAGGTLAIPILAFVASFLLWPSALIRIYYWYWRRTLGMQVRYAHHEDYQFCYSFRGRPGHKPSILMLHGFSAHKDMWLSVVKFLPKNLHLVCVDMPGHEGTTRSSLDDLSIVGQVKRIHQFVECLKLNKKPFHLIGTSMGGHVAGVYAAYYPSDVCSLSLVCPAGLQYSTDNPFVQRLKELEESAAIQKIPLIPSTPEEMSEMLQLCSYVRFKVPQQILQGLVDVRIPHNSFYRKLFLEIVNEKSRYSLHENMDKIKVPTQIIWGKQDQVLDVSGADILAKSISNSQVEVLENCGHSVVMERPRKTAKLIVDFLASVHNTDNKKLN
Outline: (§1)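 Gel-based read-out: fluorescent band intensity after SDS-PAGE reflected remaining hydrolase activity. Inhibitors were preincubated 30 min at 37° C with 1.0 mg/mL mouse brain membrane or lysate proteome before a further 30 min at 37° C with FP-Rh or HT-01 probe.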

PLA2G7 = molecular target: T2, PLA2G7 (Mus musculus, UniProt Q60963); conditions: for inhibition at 1 µM: 1 μM inhibitor, read-out: % Inhibition at 1 μM, D = PLA2G7; for inhibition at 10 µM: 10 μM inhibitor, read-out: % Inhibition at 10 μM, D = PLA2G7
T2 construct: Proteomes (mouse brain membrane fraction or cell lysates); from tissue; host or cells: mouse brain membrane fraction (or cell lysates, not specified)
T2 sequence (Q60963 22-440): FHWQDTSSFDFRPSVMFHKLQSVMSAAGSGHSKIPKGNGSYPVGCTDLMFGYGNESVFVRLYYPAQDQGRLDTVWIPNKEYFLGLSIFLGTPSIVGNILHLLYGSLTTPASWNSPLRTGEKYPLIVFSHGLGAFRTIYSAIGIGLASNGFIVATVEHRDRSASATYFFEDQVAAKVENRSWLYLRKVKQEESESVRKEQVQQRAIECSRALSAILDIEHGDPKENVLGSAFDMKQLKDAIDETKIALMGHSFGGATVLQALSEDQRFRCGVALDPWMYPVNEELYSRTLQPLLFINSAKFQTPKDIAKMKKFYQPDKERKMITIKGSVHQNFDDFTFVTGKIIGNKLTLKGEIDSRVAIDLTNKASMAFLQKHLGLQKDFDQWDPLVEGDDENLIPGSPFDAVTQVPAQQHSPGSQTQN
Outline: as §1

FAAH = molecular target: T3, FAAH (Mus musculus, UniProt O08914); conditions: for inhibition at 10 µM: 10 μM inhibitor, read-out: % Inhibition at 10 μM, B = FAAH; for inhibition at 1 µM: 1 μM inhibitor, read-out: % Inhibition at 1 μM, B = FAAH; for IC50: mouse brain membrane fraction or cell lysates, 30 min preincubation at 37° C., read-out: Mouse (IC50 value, nM) FAAH
T3 construct: Proteomes (mouse brain membrane fraction or cell lysates); from tissue; host or cells: mouse brain membrane fraction (or cell lysates, not specified)
T3 sequence (O08914 1-579): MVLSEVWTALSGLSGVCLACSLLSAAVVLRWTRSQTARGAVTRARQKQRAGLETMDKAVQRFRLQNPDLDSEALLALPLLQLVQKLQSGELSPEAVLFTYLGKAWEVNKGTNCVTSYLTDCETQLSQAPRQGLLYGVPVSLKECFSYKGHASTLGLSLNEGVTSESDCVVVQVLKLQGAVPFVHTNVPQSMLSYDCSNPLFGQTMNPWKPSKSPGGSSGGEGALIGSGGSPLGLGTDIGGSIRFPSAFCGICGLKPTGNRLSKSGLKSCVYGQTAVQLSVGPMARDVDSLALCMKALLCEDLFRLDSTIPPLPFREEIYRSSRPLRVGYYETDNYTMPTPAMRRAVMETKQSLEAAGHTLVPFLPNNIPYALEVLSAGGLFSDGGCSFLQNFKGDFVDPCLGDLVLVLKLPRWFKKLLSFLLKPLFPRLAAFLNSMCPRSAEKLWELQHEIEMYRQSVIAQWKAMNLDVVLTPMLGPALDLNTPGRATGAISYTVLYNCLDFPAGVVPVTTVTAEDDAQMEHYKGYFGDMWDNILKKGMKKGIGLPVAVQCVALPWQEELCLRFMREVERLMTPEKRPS
Outline: as §1

MAGL = molecular target: T4, MAGL (Mus musculus, UniProt O35678); conditions: for inhibition at 10 µM: 10 μM inhibitor; for inhibition at 1 µM: 1 μM inhibitor; for IC50: mouse brain membrane fraction or cell lysates, 30 min preincubation at 37° C., read-out: Mouse (IC50 value, nM) MAGL
T4 construct: Proteomes (mouse brain membrane fraction or cell lysates); from tissue; host or cells: mouse brain membrane fraction (or cell lysates, not specified)
T4 sequence (O35678 1-303): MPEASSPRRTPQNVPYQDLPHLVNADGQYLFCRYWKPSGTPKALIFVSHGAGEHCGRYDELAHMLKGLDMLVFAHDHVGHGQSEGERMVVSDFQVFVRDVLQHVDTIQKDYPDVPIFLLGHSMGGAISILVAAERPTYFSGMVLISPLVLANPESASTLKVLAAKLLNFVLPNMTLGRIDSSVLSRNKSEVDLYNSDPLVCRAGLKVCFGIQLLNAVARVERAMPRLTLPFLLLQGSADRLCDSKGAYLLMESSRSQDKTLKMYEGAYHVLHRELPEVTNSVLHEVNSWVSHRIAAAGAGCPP
Outline: as §1

Row | SMILES | inhibition at 1 µM (ABHD6) | inhibition at 10 µM (ABHD6) | inhibition at 1 µM (PLA2G7) | inhibition at 10 µM (PLA2G7) | inhibition at 10 µM (FAAH) | inhibition at 10 µM (MAGL) | IC50 (ABHD6) | inhibition at 1 µM (FAAH) | IC50 (FAAH) | inhibition at 1 µM (MAGL) | IC50 (MAGL)
1 | O=C(c1cnn(C(=O)N2CCN(Cc3ccncc3)CC2)c1)N1CCOCC1 [Example 52, (4-(Morpholine-4-carbonyl)-1H-pyrazol-1-yl)(4-(pyridin-4-ylmethyl)piperazin-1-yl)methanone] | 25 to 75% | > 75% | < 25% | > 75% | < 25% | < 25% |  |  |  |  | 
2 | O=C(c1cnn(C(=O)N2CCN(Cc3cccnc3)CC2)c1)N1CCOCC1 [Example 53, (4-(Morpholine-4-carbonyl)-1H-pyrazol-1-yl)(4-(pyridin-3-ylmethyl)piperazin-1-yl)methanone] | < 25% | > 75% | < 25% | > 75% | < 25% | 25 to 75% |  |  |  |  | 
3 | O=C(c1cnn(C(=O)N2CCN(Cc3ccncn3)CC2)c1)N1CCOCC1 [Example 54, (4-(Morpholine-4-carbonyl)-1H-pyrazol-1-yl)(4-(pyrimidin-4-ylmethyl)piperazin-1-yl)methanone] | < 25% | 25 to 75% | < 25% | > 75% | < 25% | 25 to 75% |  |  |  |  | 
4 | O=C(c1cnn(C(=O)N2CCN(Cc3nccs3)CC2)c1)N1CCOCC1 [Example 55, (4-(Morpholine-4-carbonyl)-1H-pyrazol-1-yl)(4-(thiazol-2-ylmethyl)piperazin-1-yl)methanone] | 25 to 75% | > 75% | < 25% | > 75% | 25 to 75% | < 25% |  |  |  |  | 
5 | O=C(c1cnn(C(=O)N2CCN(Cc3cncnc3)CC2)c1)N1CCOCC1 [Example 56, (4-(Morpholine-4-carbonyl)-1H-pyrazol-1-yl)(4-(pyrimidin-5-ylmethyl)piperazin-1-yl)methanone] | < 25% | > 75% | < 25% | > 75% | < 25% | < 25% |  |  |  |  | 
6 | Cc1cc(-c2ccccc2)ccc1CN1CCN(C(=O)n2cc(C(=O)N3CCOCC3)cn2)CC1 [Example 57, (4-((3-Methyl-[1,1′-biphenyl]-4-yl)methyl)piperazin-1-yl)(4-(morpholine-4-carbonyl)-1H-pyrazol-1-yl)methanone] | > 75% | > 75% | < 25% | > 75% | > 75% | > 75% | 100 to 1000 nM | > 75% | < 100 nM | > 75% | 100 to 1000 nM
7 | O=C(N1CCN(Cc2ccc3c(c2)OCO3)CC1)n1cc(-c2ccccc2)cn1 [Example 58, (4-(Benzo[d][1,3]dioxol-5-ylmethyl)piperazin-1-yl)(4-phenyl-1H-pyrazol-1-yl)methanone] | > 75% | > 75% | > 75% | > 75% | > 75% | > 75% | 100 to 1000 nM | > 75% |  | < 25% | 
8 | O=C(N1CCN(Cc2ccncc2)CC1)n1cc(-c2ccccc2)cn1 [Example 59, (4-Phenyl-1H-pyrazol-1-yl)(4-(pyridin-4-ylmethyl)piperazin-1-yl)methanone] | > 75% | > 75% | > 75% | > 75% | > 75% | 25 to 75% | 100 to 1000 nM |  |  |  | 
9 | O=C(N1CCN(Cc2cccnc2)CC1)n1cc(-c2ccccc2)cn1 [Example 60, (4-Phenyl-1H-pyrazol-1-yl)(4-(pyridin-3-ylmethyl)piperazin-1-yl)methanone] | > 75% | > 75% | > 75% | > 75% | > 75% | 25 to 75% | 100 to 1000 nM |  |  |  | 
10 | O=C(N1CCN(Cc2ccccn2)CC1)n1cc(-c2ccccc2)cn1 [Example 61, (4-Phenyl-1H-pyrazol-1-yl)(4-(pyridin-2-ylmethyl)piperazin-1-yl)methanone] | > 75% | > 75% | > 75% | > 75% | > 75% | < 25% |  |  |  |  | 
11 | O=C(N1CCN(Cc2ccncn2)CC1)n1cc(-c2ccccc2)cn1 [Example 62, (4-Phenyl-1H-pyrazol-1-yl)(4-(pyrimidin-4-ylmethyl)piperazin-1-yl)methanone] | > 75% | > 75% | > 75% | > 75% | > 75% | < 25% |  |  |  |  | 
12 | O=C(N1CCN(Cc2nccs2)CC1)n1cc(-c2ccccc2)cn1 [Example 63, (4-Phenyl-1H-pyrazol-1-yl)(4-(thiazol-2-ylmethyl)piperazin-1-yl)methanone] | > 75% | > 75% | > 75% | > 75% | > 75% | < 25% | 100 to 1000 nM |  |  |  | 
13 | O=C(N1CCN(Cc2cncnc2)CC1)n1cc(-c2ccccc2)cn1 [Example 64, (4-Phenyl-1H-pyrazol-1-yl)(4-(pyrimidin-5-ylmethyl)piperazin-1-yl)methanone] | > 75% | > 75% | > 75% | > 75% | < 25% | < 25% |  |  |  |  | 
14 | Cc1cc(-c2ccccc2)ccc1CN1CCN(C(=O)n2cc(-c3ccccc3)cn2)CC1 [Example 65, (4-((3-Methyl-[1,1′-biphenyl]-4-yl)methyl)piperazin-1-yl)(4-phenyl-1H-pyrazol-1-yl)methanone] | > 75% | > 75% | > 75% | > 75% | > 75% | > 75% |  | > 75% |  | < 25% | 
15 | O=C(c1cnn(C(=O)N2CCN(C(c3ccc(Cl)cc3)c3ccc(Cl)cc3)CC2)c1)N1CCOCC1 [Example 67, (4-(Bis(4-chlorophenyl)methyl)piperazin-1-yl)(4-(morpholine-4-carbonyl)-1H-pyrazol-1-yl)methanone] | > 75% | > 75% | > 75% | > 75% | 25 to 75% | > 75% | 100 to 1000 nM | < 25% | > 1000 nM | > 75% | 100 to 1000 nM
